Measured values published in ChEMBL document CHEMBL3600362, “Synthesis of CNS active thyrotropin-releasing hormone (TRH)-like peptides: Biological evaluation and effect on cognitive impairment induced by cerebral ischemia in mice” (Bioorg Med Chem, 2015).
Activity calls are given as the source filed them. The calls are words filed in the database; no cut-off is given here.

Key:
[1] = biological target: T1, Thyrotropin-releasing hormone receptor (Mus musculus, UniProt P21761); assay: Displacement of [3H]-1-MeHis-TRH from mouse TRH-R1 expressed in HEK293 cells incubated up to 4 hrs by scintillation counting method; type: cell-based
T1 sequence (P21761 whole entry): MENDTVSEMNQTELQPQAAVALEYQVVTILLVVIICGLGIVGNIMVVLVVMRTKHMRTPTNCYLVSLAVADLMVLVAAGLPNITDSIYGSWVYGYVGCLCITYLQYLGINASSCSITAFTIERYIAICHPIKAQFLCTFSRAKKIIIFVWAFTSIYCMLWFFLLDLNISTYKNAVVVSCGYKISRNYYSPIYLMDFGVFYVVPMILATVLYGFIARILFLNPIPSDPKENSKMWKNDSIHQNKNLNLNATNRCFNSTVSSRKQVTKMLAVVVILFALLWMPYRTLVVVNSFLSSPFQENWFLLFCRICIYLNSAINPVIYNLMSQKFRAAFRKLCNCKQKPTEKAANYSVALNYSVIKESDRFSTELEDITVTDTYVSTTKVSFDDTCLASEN

[2] = tested on: HEK293; assay: Selectivity index, ratio of EC50 for agonist activity at mouse TRH-R1 expressed in HEK293 cells to EC50 for agonist activity at mouse TRH-R2 expressed in HEK293 cells; type: cell-based
[3] = tested on: Mus musculus; assay: Reduction in pentobarbital-induced sleeping time in Swiss mouse at 10 umol/kg, iv; type: functional
[4] = biological target: T1, Thyrotropin-releasing hormone receptor; assay: Agonist activity at mouse TRH-R1 expressed in HEK293 cells assessed as induction of changes in intracellular Ca2+ level by FLIPR method; type: functional, cell-based
[5] = biological target: T2, Thyrotropin-releasing hormone receptor 2 (Mus musculus, UniProt Q9ERT1); assay: Displacement of [3H]-1-MeHis-TRH from mouse TRH-R2 expressed in HEK293 cells incubated up to 4 hrs by scintillation counting method; type: cell-based
T2 sequence (Q9ERT1 whole entry): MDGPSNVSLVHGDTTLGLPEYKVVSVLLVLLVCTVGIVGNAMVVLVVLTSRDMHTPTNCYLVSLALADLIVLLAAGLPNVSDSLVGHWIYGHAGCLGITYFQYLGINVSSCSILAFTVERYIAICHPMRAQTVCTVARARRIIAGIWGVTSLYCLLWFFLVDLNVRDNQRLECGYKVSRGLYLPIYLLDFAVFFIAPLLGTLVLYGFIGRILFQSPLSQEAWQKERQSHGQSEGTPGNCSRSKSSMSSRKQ

[6] = biological target: T2, Thyrotropin-releasing hormone receptor 2; assay: Agonist activity at mouse TRH-R2 expressed in HEK293 cells assessed as induction of changes in intracellular Ca2+ level by FLIPR method; type: functional, cell-based
[7] = tested on: Rattus norvegicus; assay: Reduction in cognitive impairment in Sprague-Dawley rat assessed as increase in number of entries to platform zone during retention trial at 10 umol/kg, iv measured on day 6 by Morris water maze test (reference value: 0.5); type: functional
[8] = tested on: Rattus norvegicus; assay: Effect on mean latency time during retention trial in Sprague-Dawley rat model of MCA occlusion-induced memory impairment at 10 umol/kg, iv by passive avoidance test; type: functional, organism-based
[9] = tested on: Rattus norvegicus; assay: Effect on mean latency time during acquisition trial in Sprague-Dawley rat model of MCA occlusion-induced memory impairment at 10 umol/kg, iv by passive avoidance test; type: ADME, organism-based; conditions: in vivo
[10] = biological target: T3, Thyrotropin-releasing hormone-degrading ectoenzyme (Mus musculus, UniProt Q8K093); assay: Stability assessed as mouse recombinant TRH-degrading ectoenzyme-mediated compound degradation up to 18 hrs by HPLC method; type: ADME
T3 sequence (Q8K093 whole entry): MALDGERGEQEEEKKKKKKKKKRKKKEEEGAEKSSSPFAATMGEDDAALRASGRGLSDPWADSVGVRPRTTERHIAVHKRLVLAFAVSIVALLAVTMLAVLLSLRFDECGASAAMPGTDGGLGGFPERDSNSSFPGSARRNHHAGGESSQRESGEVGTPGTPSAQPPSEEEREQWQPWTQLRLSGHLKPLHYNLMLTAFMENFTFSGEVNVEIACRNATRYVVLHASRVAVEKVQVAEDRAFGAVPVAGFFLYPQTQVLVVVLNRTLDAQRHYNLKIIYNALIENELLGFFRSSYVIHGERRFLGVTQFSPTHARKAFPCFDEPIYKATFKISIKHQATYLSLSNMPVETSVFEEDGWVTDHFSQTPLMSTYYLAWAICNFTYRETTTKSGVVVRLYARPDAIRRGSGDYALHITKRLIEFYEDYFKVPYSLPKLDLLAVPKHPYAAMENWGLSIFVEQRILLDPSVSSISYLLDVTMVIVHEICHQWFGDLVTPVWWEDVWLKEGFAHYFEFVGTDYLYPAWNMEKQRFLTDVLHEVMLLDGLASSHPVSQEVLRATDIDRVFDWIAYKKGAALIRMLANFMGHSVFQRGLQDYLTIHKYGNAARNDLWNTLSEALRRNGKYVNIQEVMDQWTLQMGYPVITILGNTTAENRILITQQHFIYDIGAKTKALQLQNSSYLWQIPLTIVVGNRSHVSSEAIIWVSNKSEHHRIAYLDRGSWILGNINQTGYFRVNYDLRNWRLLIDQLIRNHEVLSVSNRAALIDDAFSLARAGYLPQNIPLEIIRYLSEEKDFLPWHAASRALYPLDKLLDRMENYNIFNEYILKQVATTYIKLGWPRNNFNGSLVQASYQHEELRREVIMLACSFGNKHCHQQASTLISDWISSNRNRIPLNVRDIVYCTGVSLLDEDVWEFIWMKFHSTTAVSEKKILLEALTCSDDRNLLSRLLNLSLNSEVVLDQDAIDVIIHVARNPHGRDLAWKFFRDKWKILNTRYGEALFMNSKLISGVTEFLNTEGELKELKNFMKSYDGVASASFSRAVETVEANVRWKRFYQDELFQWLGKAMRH

[11] = tested on: Rattus norvegicus; assay: Inhibition of lipid peroxidation in brain homogenates of Sprague-Dawley rat model of 2 hrs MCA occlusion-induced focal cerebral ischemia assessed as reduction in MDA levels at 10 umol/kg, iv administered immediately after reperfusion and measured 22 hrs after reperfusion by TBARS assay; type: functional, organism-based
[12] = tested on: Rattus norvegicus; assay: Neuroprotective activity in Sprague-Dawley rat model of MCA occlusion-induced memory impairment assessed as minimum latency time during acquisition trial at 10 umol/kg, iv by passive avoidance test (reference value: 49 secs); type: functional
[13] = tested on: Rattus norvegicus; assay: Reduction in cognitive impairment in Sprague-Dawley rat assessed as reduction in latency to first entry to platform zone during retention trial at 10 umol/kg, iv measured on day 6 by Morris water maze test (reference value: 95.76 secs); type: functional
[14] = tested on: Rattus norvegicus; assay: Increase in neuronal survival in Sprague-Dawley rat model of MCA occlusion-induced focal cerebral ischemia assessed as increase in neuronal density at hippocampal CA1 regions at 10 umol/kg, iv by Cresyl violet staining based microscopy; type: functional, organism-based
[15] = tested on: Rattus norvegicus; assay: Reduction in volume of infarction in Sprague-Dawley rat model of MCA occlusion-induced focal cerebral ischemia assessed as infarcts volume at 10 umol/kg, iv administered immediately after reperfusion and measured 22 hrs after reperfusion (reference value: 237.69 +/- 4.08 mm3); type: functional
[16] = tested on: Rattus norvegicus; assay: Reduction in neurological score in Sprague-Dawley rat model of MCA occlusion-induced focal cerebral ischemia at 10 umol/kg, iv administered immediately after reperfusion and measured 22 hrs after reperfusion up to 7 days; type: functional, organism-based
[17] = tested on: Rattus norvegicus; assay: Neuroprotective activity in Sprague-Dawley rat model of MCA occlusion-induced memory impairment assessed as maximum latency time during acquisition trial at 10 umol/kg, iv by passive avoidance test (reference value: 49 secs); type: functional
[18] = Half life in human plasma; type: ADME, cell-free
[19] = biological target: T4, TRH-degrading ectoenzyme (Mus musculus, UniProt Q8K093); assay: Stability assessed as mouse recombinant TRH-degrading ectoenzyme-mediated compound degradation at 1 mM measured within 18 hrs by HPLC method; type: ADME; conditions: read-out: Drug degradation
T4 sequence (Q8K093 whole entry): T3 sequence (Q8K093 whole entry)

Row | Structure (SMILES) | IC50 [1] [nM] | EC50 [4] [nM] | IC50 [5] [nM] | EC50 [6] [nM] | Ratio EC50 [2] | inhibition in vivo at 10 µmol/kg [3] [%] | further results
1 | CCCc1nc(C[C@H](NC(=O)c2cnccn2)C(=O)N2CCC[C@H]2C(N)=O)c[nH]1 | > 50000 | 150 | > 50000 | 60 | 2.5 | 63.6 | 
2 | NC(=O)[C@@H]1CCCN1C(=O)[C@H](Cc1nc(Br)[nH]c1Br)NC(=O)c1nccnc1N | > 50000 | 1410 | > 50000 | 290 | 4.8 | 12.2 | 
3 | NC(=O)[C@@H]1CCCN1C(=O)[C@H](Cc1nc[nH]c1Br)NC(=O)c1cnccn1 | > 50000 | 3980 | > 50000 | 48 | 82.9 | 32.8 | 
4 | NC(=O)[C@@H]1CCCN1C(=O)[C@H](Cc1c[nH]cn1)NC(=O)[C@@H]1CCC(=O)N1 [PROTIRELIN] |  |  |  |  | 1.9 | 51.1 | EC50 ([4]; hek293): 1 nM
5 | NC(=O)[C@@H]1CCCN1C(=O)[C@H](Cc1nc(I)[nH]c1I)NC(=O)c1cnccn1 | > 50000 | 11300 | > 50000 | 310 | 36.3 | 1.5 | 
6 | NC(=O)[C@@H]1CCCN1C(=O)[C@H](Cc1nc[nH]c1Br)NC(=O)c1nccnc1N | > 50000 | 287 | > 50000 | 6 | 47.8 | 29.5 | 
7 | Cn1cnc(C[C@H](NC(=O)c2cnccn2)C(=O)N2CCC[C@H]2C(N)=O)c1Br | > 50000 | 340 | > 50000 | 30 | 11.3 | 32.3 | 
8 | CCn1c(I)nc(C[C@H](NC(=O)c2cnccn2)C(=O)N2CCC[C@H]2C(N)=O)c1I | > 50000 | 7210 | > 50000 | 960 | 7.5 | 1.8 | 
9 | Cc1cnc(C(=O)N[C@@H](Cc2nc(Br)[nH]c2Br)C(=O)N2CCC[C@H]2C(N)=O)cn1 | > 50000 | 77 | > 50000 | 100 | 0.77 | 29 | 
10 | CCCc1nc(C[C@H](NC(=O)c2nccnc2N)C(=O)N2CCC[C@H]2C(N)=O)c[nH]1 | > 50000 | 1560 | > 50000 | 120 | 10.5 | 52.2 | 
11 | CCCc1nc(C[C@H](NC(=O)c2cnc(C)cn2)C(=O)N2CCC[C@H]2C(N)=O)c[nH]1 | > 50000 | 17 | > 50000 | 15 | 1.1 | 4.1 | 
12 | NC(=O)[C@@H]1CCCN1C(=O)[C@H](Cc1nc[nH]c1Cl)NC(=O)c1cnccn1 | > 50000 | 19300 | > 50000 | 530 | 36.5 | 29.8 | 

Now from value to compound, other results behind:

Row | IC50 [1] [nM] | EC50 [4] [nM] | IC50 [5] [nM] | EC50 [6] [nM] | Structure (SMILES) | Ratio EC50 [2] | inhibition in vivo at 10 µmol/kg [3] [%] | further results
13 | > 50000 | 740 | > 50000 | 50 | Cc1cnc(C(=O)N[C@@H](Cc2nc(I)n(Cc3ccccc3)c2I)C(=O)N2CCC[C@H]2C(N)=O)cn1 | 14.8 | 50.1 | 
14 | > 50000 | 2540 | > 50000 | 50 | NC(=O)[C@@H]1CCCN1C(=O)[C@H](Cc1nc(Br)[nH]c1Br)NC(=O)c1cnccn1 | 50.8 | 74.8 | Activity [7]: 2.25; Activity [8]: Active; Activity [9]: Non-toxic; Stability [10]: Stable; Activity [11]: Active; Time [12]: 96 s; Time [13]: 36.31 s; Activity [14]: Active; Activity [15]: 196.08 mm3; Activity [16]: Active; Time [17]: 167 s
15 | 2.6 |  | 7 | 0.52 | NC(=O)[C@@H]1CCCN1C(=O)[C@H](Cc1cnc[nH]1)NC(=O)[C@@H]1CCC(=O)N1 [PROTIRELIN] |  |  | half-life [18]: 2 min; metabolised at 18 h, 1000 µM [19]: 80%
16 | > 50000 | 1000 | > 50000 | 770 | CC(C)c1nc(C[C@H](NC(=O)C2CCCCN2)C(=O)N2CCC[C@H]2C(N)=O)c[nH]1 (single isomer, unassigned) | 1.3 | 42.7 | 
17 | > 50000 | 498 | > 50000 | 40 | Cc1cnc(C(=O)N[C@@H](Cc2nc[nH]c2Br)C(=O)N2CCC[C@H]2C(N)=O)cn1 | 12.4 | 23.2 | 
18 | > 50000 | 980 | > 50000 | 30 | NC(=O)[C@@H]1CCCN1C(=O)[C@H](Cc1nc(I)n(Cc2ccccc2)c1I)NC(=O)c1cnccn1 | 32.6 | 74.8 | 
19 | > 50000 | 940 | > 50000 | 4 | CCCc1nc(C[C@H](NC(=O)C2CCCCN2)C(=O)N2CCC[C@H]2C(N)=O)c[nH]1 (single isomer, unassigned) | 235 | 67.4 | 
